Measured values as given in patent US9844513B2, “Oral pharmaceutical composition” (Sigmoid Pharma Limited, priority 2007, dated 2017).
Like-named read-outs stand apart in the source and are kept apart here.

Tests used:
[1] = tested on: DSS-induced colitis mice; assay: DSS-induced colitis in mice (DSS 2.5% in drinking water); assay type: in vivo; conditions: 8 mg DMOG every second day
Method: Colitis was induced in mice using DSS 2.5% in drinking water. DMOG mini-capsules of example 20 with two different coating were used, namely DSS-bead (0.25 mg—immediate release), and DSS-COAT-bead (DSS-COAT beads coated with 22% Surelease®—DMOG: 0.25 mg/day) and were compared to non-treated DSS-induced colitis mice and mice treated with 8 mg DMOG IP every second day. The minicapsules were prepared using the method described in Example 20 above.
As DMOG is known to increase the production of erythropoietin it is expected that in the presence of systemic DMOG that the packed cell volume would be increased. The packed cell volume (PCV) is a measurement of the proportion of blood that is made up of cells. The value is expressed as a percentage or fraction of cells in blood. The PCV rises when the number of red blood cells increases. […] Thus, it could be concluded that when administered within the intestinal or colonic lumen that it acts locally at low dose and negligible concentrations are systemically available.
Referring to FIG. 21, the disease activity index (DAI) is calculated as the sum of scores of weight loss, stool consistency and blood in feces. […] The minicapsules were prepared using the method described in Example 20 above.
A major symptom of DSS-induced colitis is weight loss. […] Likewise, when 0.25 mg DMOG is administered daily as colon-specific beads (DSS-COAT beads coated with 22% Surelease®—DMOG: 0.25 mg/day), the protective effect is pronounced. […] The minicapsules were prepared using the method described in Example 20 above.

[2] = cited from earlier work
[3] = tested on: antigen specific IgA and IgG; assay: Antigen specific IgA and IgG in intestinal washes by ELISA after immunisation of mice; assay type: in vivo; conditions: intestinal washes one week after booster
Method: FIG. 9 represents the immune response in mice immunised with minicapsules as described in Example 5 and Example 6. […] Mice were immunised on 3 consecutive days on week 0 followed by an identical series of booster immunisations at week 2. Intestinal washes were collected one week following the booster and antigen specific IgA and IgG was assessed by ELISA.

## COC(=O)CNC(=O)C(=O)OC [DMOG, dimethyloxalglycine]
[1]; Day 7, IP
  colon length (colon shortening): significantly reduced colon shortening
  packed cell volume (PCV): increases the PCV
[1]; IP
  protective effect (weight loss) compared with non-treated DSS mice: significant protective effect
[1]; IP, 7 days
  Disease Activity Index (DAI): high DAI

## COc1ccccc1OCCNCC(O)COc1cccc2[nH]c3ccccc3c12 (centres unmarked) [Carvedilol]
[2]; absorbed from the small intestine
  time to reach maximum plasma concentration: within two hours
[2]; colon
  relative absorption: ~7%
[2]; extensive first-pass metabolism
  absolute bioavailability: approximately 25%
[2]; ileum
  relative absorption: ~28%
[2]; in vivo
  half-life: 7 to 10 h
[2]; jejunum
  relative absorption: approximately 56%

B1: OVA in solution: Ovalbumin antigen given in solution, comparison group (protein, UniProt P01012 2-386, looked up)
Ovalbumin: GSIGAASMEFCFDVFKELKVHHANENIFYCPIAIMSALAMVYLGAKDSTRTQINKVVRFDKLPGFGDSIEAQCGTSVNVHSSLRDILNQITKPNDVYSFSLASRLYAEERYPILPEYLQCVKELYRGGLEPINFQTAADQARELINSWVESQTNGIIRNVLQPSSVDSQTAMVLVNAIVFKGLWEKAFKDEDTQAMPFRVTEQESKPVQMMYQIGLFRVASMASEKMKILELPFASGTMSMLVLLPDEVSGLEQLESIINFEKLTEWTSSNVMEERKIKVYLPRMKMEEKYNLTSVLMAMGITDVFSSSANLSGISSAESLKISQAVHAAHAEINEAGREVVGSAEAGVDAASVSEEFRADHPFLFCIKHIATNAVLFFGRCVSP
[3]
  titres of antigen specific IgG in the intestinal washes: highest responses
